Tests used:
[1] = test system: RCC cells co-transplanted with macrophages; test: Zebrafish cancer xenograft model of RCC cell dissemination (early stage of metastasis); format: in vivo; settings: macrophages treated with compound before co-transplantation with RCC cells into zebrafish embryos; vs DMSO-treated macrophages; FIGS. 14, 15
Description: Evaluation of in vivo mouse RCC cell dissemination (early stage of metastasis) was performed by using a validated zebrafish model.
Embryos of 48 hours post-fertilization were prepared for cell xenotransplantation and either 39 or 44 embryos were used for each treatment group. After the RCC cells were stained with 2 μg/mL DiI (Invitrogen), the villus of the embryos was removed, and then the embryos were anesthetized with 0.0016% tricaine. An injector (Picospritzer ? , Parker Hannifin, Cleveland, Ohio, USA) was used to inject 200 RCC cells into the center of egg yolk or a mixture of the RCC cells and DMSO-treated macrophages or of the RCC cells and DUSP inhibitor-treated macrophages (1:1 ratio) was injected to the center of egg yolk. The xenotransplanted embryos were transferred to a 96-well plate of 200 μL of E3 medium. The number of embryos, representing the dissemination of cancer cells from the injection site, was counted by using a fluorescence microscope (Leica DM2500 Microscope).

[2] = test system: RENCA RCC cells co-cultured with RAW264.7 macrophages; test: Transwell invasion analysis of RENCA RCC cells co-cultured with RAW264.7 macrophages; format: cell-based, mouse; settings: compound treatment, FIGS. 11, 12, 16, 17
Description: RENCA mouse renal epithelial adenocarcinoma cells and RAW264.7 mouse macrophages were purchased from the Korean Cell Line Bank (Seoul, Korea). RENCA and RAW264.7 cells were maintained in Dulbecco's Modified Eagle Medium (DMEM) medium (Gibco, Thermo Fisher Scientific, Waltham, Mass., USA) supplemented with 10% FBS and 1% penicillin/streptomycin.
Cancer cell invasion analysis was performed in a 24-well transwell plate (Corning Costar, New York, N.Y., USA). A transwell having a pore size of 8 μm was coated with Type I collagen (3 μg/60 μL/well). A total of 4×10^4 bone marrow-derived macrophage (BMDM) cells were seeded in the lower chamber and differentiated into macrophages by using cancer CM. A total of 1×10^4 cancer cells were seeded into the upper transwell. After 24 or 48 hours, cancer cells that invaded into the lower chamber through the porous membrane were fixed with 3.7% formaldehyde and stained with 0.2% crystal violet. Images of the stained cells were obtained by using an optical microscope (CKX41, Olympus, Tokyo, Japan) and analyzed by using the ImageJ software program (NIH, Bethesda, Md., RRID:SCR_003070). To evaluate the effect of DUSP22 or MAPK14 knockdown, 1×10^5 RAW264.7 cells were seeded in the lower chamber and transfected with siRNA.

| Structure (SMILES) | dissemination (early stage of metastasis) in vivo [1] | RCC invasion induced by the co-culture with macrophages [2] |
| --- | --- | --- |
| O=C(O)c1ccc(N2C(=O)/C(=C/c3ccccc3)SC2=S)cc1 [BML-260] | significantly inhibited | inhibited |
| O=C(O)c1ccc(/C=C2\SC(=S)N(c3cccc(C(F)(F)F)c3)C2=O)cc1 [CFTRinh-172] | – | inhibited |
